In ChEMBL document CHEMBL1153984, “Ganoderic acid DM: anti-androgenic osteoclastogenesis inhibitor” (Bioorg Med Chem Lett, 2009):
Calls of active or inactive are those of the source. The calls are words filed in the database; no cut-off is given here.

Columns and labels:
PC-3 [1] = assay: Antiproliferative activity against human PC3 cells after 3 days by NR assay; assay type: functional, cell-based
[2] = (§1) Inhibition of 5-alpha-reductase in rat liver microsome assessed as conversion of [14C] testosterone to [14C] dihydrotestosterone; assay type: microsomes
LNCaP [3] = assay: Growth inhibition against testosterone-induced human LNCAP cell proliferation assessed as decrease in cell viability after 3 dayssby NR assay; assay type: functional, cell-based
LNCaP [4] = assay: Growth inhibition of human LNCAP cells assessed as decrease in cell viability after 3 days by NR assay; assay type: functional, cell-based
PC-3 [5] = assay: Antiproliferative activity against human PC3 cells at 12.5 to 50 uM after 3 days by NR assay; assay type: functional, cell-based
LNCaP [6] = assay: Growth inhibition against dihydrotestosterone-induced human LNCAP cell proliferation assessed as decrease in cell viability after 3 dayssby NR assay; assay type: functional, cell-based
[7] = target: T1, Androgen receptor (Homo sapiens) (UniProt P10275); assay: Inhibition of DHT binding to human recombinant androgen receptor ligand binding domain at 15 uM by fluorescence polarization; set-up: scale not given: the % may be the effect or the level left
T1 sequence (whole entry): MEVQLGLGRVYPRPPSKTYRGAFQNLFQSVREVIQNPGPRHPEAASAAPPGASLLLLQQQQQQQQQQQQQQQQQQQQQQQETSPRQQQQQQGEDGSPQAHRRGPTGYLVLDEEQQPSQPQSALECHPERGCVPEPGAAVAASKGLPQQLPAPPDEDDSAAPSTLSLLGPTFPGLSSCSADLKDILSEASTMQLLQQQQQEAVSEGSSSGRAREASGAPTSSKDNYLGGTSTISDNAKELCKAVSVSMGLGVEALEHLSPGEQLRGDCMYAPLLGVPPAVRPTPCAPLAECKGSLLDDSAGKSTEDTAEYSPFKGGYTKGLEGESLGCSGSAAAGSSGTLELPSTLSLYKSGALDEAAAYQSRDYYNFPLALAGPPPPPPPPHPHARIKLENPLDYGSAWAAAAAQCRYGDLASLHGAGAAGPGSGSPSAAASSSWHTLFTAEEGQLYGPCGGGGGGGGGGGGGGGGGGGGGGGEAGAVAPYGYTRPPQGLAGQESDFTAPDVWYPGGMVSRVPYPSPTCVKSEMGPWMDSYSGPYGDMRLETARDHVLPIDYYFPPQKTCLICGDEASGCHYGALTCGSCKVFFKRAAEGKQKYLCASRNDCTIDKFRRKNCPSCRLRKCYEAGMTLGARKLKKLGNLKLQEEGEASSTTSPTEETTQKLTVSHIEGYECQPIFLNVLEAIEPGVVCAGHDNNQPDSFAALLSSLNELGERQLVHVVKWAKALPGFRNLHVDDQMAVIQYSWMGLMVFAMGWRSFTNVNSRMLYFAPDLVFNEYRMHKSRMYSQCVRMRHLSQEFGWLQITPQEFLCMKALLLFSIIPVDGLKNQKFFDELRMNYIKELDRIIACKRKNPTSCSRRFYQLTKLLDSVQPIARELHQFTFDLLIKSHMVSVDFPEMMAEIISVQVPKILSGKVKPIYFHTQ

Rattus norvegicus = species on record: Rattus norvegicus; assay: as §1; assay type: microsomes
RAW264 = assay: Inhibition of osteoclastogenesis in RANKL-stimulated mouse RAW264 cells at 25 uM after 3 days by TRAP assay; assay type: functional, cell-based
[8] = Cytotoxicity against mouse RAW264 cells assessed as cell number at 12.5 uM after 3 days by WST1 assay; assay type: cell-based; conditions: raw264, 72 h
[9] = Cytotoxicity against mouse RAW264 cells assessed as viable cells at 25 uM after 3 days by WST1 assay; assay type: cell-based; conditions: read-out: Activity
[10] = Inhibition of osteoclastogenesis in RANKL-stimulated mouse RAW264 cells at 12.5 uM after 3 days by TRAP assay; assay type: functional; conditions: RAW264.7, 72 h

For `C/C(=C\CC[C@@H](C)[C@H]1CC[C@@]2(C)C3=CC[C@H]4C(C)(C)[C@@H](O)CC[C@]4(C)C3=CC[C@]12C)CO`, the Activity (PC-3 [1]) was “inactive”.
In the case of `CC(C)(C)NC(=O)[C@H]1CC[C@H]2[C@@H]3CC[C@H]4NC(=O)C=C[C@]4(C)[C@H]3CC[C@]12C` [FINASTERIDE], the IC50 [2] is reported as 0.73 µM.
With `C/C(=C/CC[C@@H](C)[C@H]1CC[C@@]2(C)C3=C(CC[C@]12C)[C@@]1(C)CCC(=O)C(C)(C)[C@@H]1CC3=O)C(=O)O` [GANODERIC ACID DM] the Activity (LNCaP [3]) was “Dose-dependent effect”, the Activity (LNCaP [4]) was “Dose-dependent effect” and the Activity (PC-3 [5]) was “Active”. For the same compound, the Activity (LNCaP [6]) was “Dose-dependent effect”, the Activity [7] was 50% and the IC50 [2] was 10.6 µM. The Activity (Rattus norvegicus) was “Dose-dependent effect”, the Activity (RAW264) was “inactive” and the Activity [8] was “Non-toxic”. The viability at 72 h, 25 µM [9] was 72% and the inhibition at 12.5 µM [10] was 40%.
For `CC/C=C\C/C=C\C/C=C\CCCCCCCC(=O)O` [LINOLENIC ACID], the IC50 [2] was 116 µM.
